{"source": "paper PMC12873548", "about": "“D-amino acid substitution and cyclization enhance the stability and antimicrobial activity of arginine-rich peptides” (Microbiology, 2026)", "key": {"E. coli": {"system": "E. coli", "experiment": "Live/dead SYTO 9/PI fluorescence imaging", "type": "cell-based, Escherichia coli", "details": "mid-log phase E. coli, 2× MIC; red = damaged membranes"}, "E. coli ATCC 25922": {"system": "E. coli ATCC 25922", "experiment": "Membrane integrity, PI uptake", "type": "cell-based, Escherichia coli", "details": "E. coli ATCC 25922, 5 µg ml−1 PI, 1 h", "protocol": "Propidium iodide (PI) uptake was used to assess the permeabilization of the bacterial membrane upon incubation with peptides. E. coli and S. aureus cells, adjusted to an OD600 of 0.5, were placed into a 96-well plate containing 5 mM HEPES buffer (pH 7.4, supplemented with 5 mM glucose) and incubated with 5 µg ml^−1 PI for 15 min. Afterwards, different peptide concentrations were added, and PI uptake was rapidly measured every 10 min over a 1 h period using a Tecan Spark® microplate reader (λex=515 nm, λem=620 nm)."}, "S. aureus (ATCC12600)": {"system": "S. aureus (ATCC12600)", "type": "cell-based, Staphylococcus aureus", "details": "S. aureus ATCC12600", "protocol": "(§1) The MIC of arginine-based peptides was assessed using the microbroth dilution approach. Our in vitro screening included a panel of Gram-negative bacteria, Escherichia coli (ATCC 25922 and enterohaemorrhagic O157:H7) and Pseudomonas aeruginosa (PA01 and the drug-resistant strain NCTC 13437), and Gram-positive bacteria (Staphylococcus aureus ATCC 12600). Five-millilitre overnight cultures in Lysogeny broth, prepared from single isolated colonies, were diluted to 5×10^6 c.f.u. ml^−1 mid-log phase in Mueller–Hinton (MH) broth. Next, peptide concentrations (0 to 1 mM) were serially diluted twofold in 96-well plates and incubated overnight at 37 °C with the tested bacterial strains. In each case, the MIC was determined as the lowest peptide concentration at which no detectable bacterial growth was observed, employing an absorbance-based assay using a Tecan Spark® multimode plate reader. Subsequently, 10 µl aliquots from each peptide dilution were transferred to MH agar (1.5%) plates to determine the minimum bactericidal concentration (MBC) which was assessed by establishing at which concentration no visible growth of bacteria (assessed via colony formation) on the plate was observed."}, "[1]": {"system": "P. aeruginosa (PAO1) biofilms", "experiment": "Disruption of pre-established biofilms, resazurin", "type": "cell-based, Pseudomonas aeruginosa", "details": "48 h P. aeruginosa biofilm, peptide at 2× MIC, 18 h, 37 °C", "protocol": "To establish mature P. aeruginosa (PAO1) biofilms, an overnight culture was diluted to an OD600 of 0.01 in 120 µl of M63 medium (supplemented with 1 mM MgSO₄ and 23 µM L-arginine) and incubated in flat-bottom 96-well plates at 37 °C for 48 h. Afterwards, individual wells containing biofilm were rinsed three times with PBS, and 150 µl MH broth was added with either 0.5× and 2× MIC peptides. 100 µg mL^−1 resazurin was added to measure the biofilm metabolic activity for 18 h at 37 °C using a Tecan Spark® microplate reader (λex=520 nm/λem=590 nm). c.f.u. counts were established by plating aliquots of a dilution series onto MH agar followed by overnight incubation at 37 °C. Residual biofilm biomass was subsequently quantified using 0.1% CV staining.\nThree-dimensional images of biofilm communities, with and without peptide exposure, were captured using an All-in-One Fluorescence Microscope (Keyence, Japan). Pre-established biofilms in a 96-well plate were incubated with 2× MIC peptides for 3 h at 37 °C. Dual staining was performed with 5 µl of SYTO 9/PI for 30 min. Biofilm thickness was assessed through 2.0 µm optical cross-sections with 50 µm pinholes."}, "[2]": {"system": "Gram-positive and Gram-negative bacteria", "type": "cell-based", "details": "span of MIC and MBC against both Gram-positive and Gram-negative bacteria, Table 2", "protocol": "as §1"}, "S. aureus (12600)": {"system": "S. aureus (12600)", "type": "cell-based, Staphylococcus aureus", "protocol": "as §1\n(§2) The antimicrobial activity and structural stability of arginine-rich peptides were evaluated in the presence of human serum (20% and 50 %) and 5 µM Sequencing Grade Modified Trypsin (SGMT, Promega). Briefly, fresh human blood was collected in EDTA tubes and allowed to clot at room temperature for 1 h. Serum was then collected following centrifugation at 2,000 r.p.m. for 10 min at 4 °C. Peptides were incubated with 20%, 50% human serum and 5 µM SGMT in 50 mM Tris-HCl buffer (1 mM CaCl₂, pH 7.6) for 24 h at 37 °C. After the incubation period, the solutions were further incubated with E. coli (ATCC 25922 and O157:H7), P. aeruginosa (PA01, NCTC13437) and S. aureus (ATCC12600), and the MIC was assessed as described in the ‘Antibacterial assessment’ section. Additionally, the samples were analysed using electrospray ionization MS to monitor structural changes based on the molecular weight of the peptides."}, "S. aureus": {"system": "S. aureus", "experiment": "Intracellular ROS, DCFH-DA", "type": "cell-based, Staphylococcus aureus", "details": "peptides at MIC, 1/2× MIC, 1/4× MIC, 4 h, 37 °C", "protocol": "Total reactive oxygen species (ROS) was measured using an oxidation-sensitive fluorescent dye, 2′,7′-dichlorodihydrofluorescein diacetate (DCFH-DA). For this assay, E. coli and S. aureus cultures were adjusted to an OD600 of 0.3 in MH broth and exposed to peptides at MIC, 1/2× MIC and 1/4× MIC, or to positive control (5 mM H2O2) for 4 h at 37 °C. Cells were centrifuged at 4,000 r.p.m. for 10 min at 4 °C and resuspended in PBS containing 10 µM DCFH-DA. The suspension was incubated under the same conditions for 30 min. Finally, cells were washed twice with PBS, and 150 µl aliquots were transferred to 96-well plates. Oxidized DCF products were detected using a Tecan Spark® microplate reader with excitation at 485 nm and emission at 530 nm. Additionally, 10 µl of E. coli cells incubated with D-R4F4 at MIC, 1/2×MIC and 1/4×MIC was collected for imaging using an All-in-One Fluorescence Microscope (Keyence, Japan)."}, "P. aeruginosa (PA01) [3]": {"system": "P. aeruginosa (PA01)", "type": "cell-based, Pseudomonas aeruginosa", "protocol": "as §1, §2"}, "P. aeruginosa (PA01) [4]": {"system": "P. aeruginosa (PA01)", "type": "cell-based, Pseudomonas aeruginosa", "details": "P. aeruginosa PA01", "protocol": "as §1"}, "[5]": {"system": "P. aeruginosa (NCTC13437)", "type": "cell-based, Pseudomonas aeruginosa", "details": "P. aeruginosa NCTC13437 (drug-resistant); 10 µl aliquots plated on MH agar, no visible colonies", "protocol": "as §1"}, "[6]": {"details": "10 µl aliquots plated on MH agar, no visible colonies"}, "[7]": {"details": "MH broth, 5×10^6 cells, 24 h, 37 °C, absorbance 600 nm, triplicate"}, "[8]": {"details": "control without serum or trypsin"}, "[9]": {"details": "peptide incubated with 5 µM SGMT trypsin in 50 mM Tris-HCl, 1 mM CaCl2, pH 7.6, 24 h at 37 °C before MIC"}, "[10]": {"details": "peptide incubated with 20% human serum 24 h at 37 °C before MIC"}, "[11]": {"details": "peptide incubated with 50% human serum 24 h at 37 °C before MIC"}}, "note": "Residues, ends and D or L forms follow the SMILES beside them.", "data": [{"compound": "N=C(N)NCCC[C@@H]1NC(=O)[C@H](CCCNC(=N)N)NC(=O)[C@H](CCCNC(=N)N)NC(=O)[C@H](Cc2ccccc2)NC(=O)[C@H](Cc2ccccc2)NC(=O)[C@H](Cc2ccccc2)NC(=O)[C@H](Cc2ccccc2)NC(=O)[C@H](CCCNC(=N)N)NC1=O", "note": "[CP-R4F4] (cyclo(RRRRFFFF))", "values": [{"measurement": "Membrane damage, live/dead SYTO 9/PI staining", "setting": "E. coli", "result": "high presence of red-stained cells indicative of damaged membranes"}, {"measurement": "PI uptake, membrane integrity", "setting": "E. coli ATCC 25922", "result": "membrane-disruptive activity"}, {"measurement": "MBC", "setting": "S. aureus (ATCC12600); [6]", "result": 125, "unit": "µM"}, {"measurement": "MIC", "setting": "S. aureus (ATCC12600); [7]", "result": 62.5, "unit": "µM"}, {"measurement": "Disruption of mature biofilm (resazurin metabolic activity)", "setting": "[1]", "result": "significantly disrupted"}, {"measurement": "MIC and MBC values over all tested strains", "setting": "[2]", "result": "15.62 to 250", "unit": "µM"}, {"measurement": "MIC, Control", "setting": "S. aureus (12600); [8]", "result": 62.5, "unit": "µM"}, {"measurement": "MIC, Trypsin", "setting": "S. aureus (12600); [9]", "result": 62.5, "unit": "µM"}, {"measurement": "MIC, 20% human serum", "setting": "S. aureus (12600); [10]", "result": 62.5, "unit": "µM"}, {"measurement": "MIC, 50% human serum", "setting": "S. aureus (12600); [11]", "result": 250, "unit": "µM"}, {"measurement": "Intracellular ROS levels", "setting": "S. aureus", "result": "highest modulation of ROS levels"}, {"measurement": "MIC, Control", "setting": "P. aeruginosa (PA01) [3]; [8]", "result": 31.25, "unit": "µM"}, {"measurement": "MIC, Trypsin", "setting": "P. aeruginosa (PA01) [3]; [9]", "result": 31.25, "unit": "µM"}, {"measurement": "MIC, 20% human serum", "setting": "P. aeruginosa (PA01) [3]; [10]", "result": 31.25, "unit": "µM"}, {"measurement": "MIC, 50% human serum", "setting": "P. aeruginosa (PA01) [3]; [11]", "result": 125, "unit": "µM"}, {"measurement": "MBC", "setting": "P. aeruginosa (PA01) [4]; [6]", "result": 31.2, "unit": "µM"}, {"measurement": "MIC", "setting": "P. aeruginosa (PA01) [4]; [7]", "result": 31.2, "unit": "µM"}, {"measurement": "MBC", "setting": "[5]", "result": 250, "unit": "µM"}]}]}
